Assay [1] concerns the target T1, human transferrin receptor (hTfR) (Homo sapiens, UniProt P02786). Put plainly: SPR measurement under pH 7.4 conditions (Biacore T200, CM3 chip, hTfR captured by His Tag antibody). It is filed as binding. The conditions noted are these: read-out: hTfR SPR pH7.4 KD.
Assay [2] deals with T1, human transferrin receptor (hTfR). Kind of assay: SPR measurement under pH 6.0 conditions (Biacore T200, NTA chip, immobilized hTfR). It is filed as binding. The note with it: read-out: hTfR SPR pH6.0 KD. For orientation: Surface plasmon resonance follows binding to a sensor surface in real time, without labels.
Setting [3] is: SPR, pH 7.4, peptide with the linker named in the table.
[4] abbreviates: SPR, pH 6.0, peptide with the linker named in the table.

pKd: −log10 of the molar value. Numbered stars: 1 amine (or outer) side, 2 acyl side, 3 side chain; on linkers, the order of the positions; unused ones are H or OH. Bridge positions count the residues as written; N and C are the ends. Square brackets hold non-standard residues; d marks the D form. Side chains are listed from the residue outwards. Peptide text beside a SMILES is read from it. * marks the point of attachment. Ala(imidazo(1,2-a)pyr3yl) = N[C@@H](Cc1cnc2ccccn12)C(=O)O; Trp(1-CH2COOH) = N[C@@H](Cc1cn(CC(=O)O)c2ccccc12)C(=O)O; CH2CON(CH2CH2)2NCH2COOH = O=C(O)CN1CCN(C(=O)C*)CC1; NMePhe(4-COOH) = CN[C@@H](Cc1ccc(C(=O)O)cc1)C(=O)O; Nle(6-morpholino) = N[C@@H](CCCCN1CCOCC1)C(=O)O; Trp(7-aza) = N[C@@H](Cc1c[nH]c2ncccc12)C(=O)O; NMePhe(3-Cl) = CN[C@@H](Cc1cccc(Cl)c1)C(=O)O; Piperazinyl(4-CH2COOH) = O=C(O)CN1CCN(*)CC1; 3Pal(6-NH2) = Nc1ccc(C[C@H](N)C(=O)O)cn1; NMeW = CN[C@@H](Cc1c[nH]c2ccccc12)C(=O)O; Lys(N3) = [N-]=[N+]=NCCCC[C@H](N)C(=O)O; NMeY = CN[C@@H](Cc1ccc(O)cc1)C(=O)O; Nva(3-Et) = CCC(CC)[C@H](N)C(=O)O; NMeF = CN[C@@H](Cc1ccccc1)C(=O)O; 3Pal = N[C@@H](Cc1cccnc1)C(=O)O; 4Pal = N[C@@H](Cc1ccncc1)C(=O)O; PEG4 = NCCOCCOCCOCCOCCC(=O)O; Carboxymethyl = O=C(O)C*; CO = O=C([*:1])[*:2]

The values that follow come from patent EP4667483A1, “HUMAN TRANSFERRIN RECEPTOR-BINDING PEPTIDE” (JCR Pharmaceuticals Co., Ltd., priority 2023, dated 2024).

For orientation: pKd means the Kd on a negative log10 scale, so that one unit is a factor of ten.

T1 sequence (P02786 whole entry): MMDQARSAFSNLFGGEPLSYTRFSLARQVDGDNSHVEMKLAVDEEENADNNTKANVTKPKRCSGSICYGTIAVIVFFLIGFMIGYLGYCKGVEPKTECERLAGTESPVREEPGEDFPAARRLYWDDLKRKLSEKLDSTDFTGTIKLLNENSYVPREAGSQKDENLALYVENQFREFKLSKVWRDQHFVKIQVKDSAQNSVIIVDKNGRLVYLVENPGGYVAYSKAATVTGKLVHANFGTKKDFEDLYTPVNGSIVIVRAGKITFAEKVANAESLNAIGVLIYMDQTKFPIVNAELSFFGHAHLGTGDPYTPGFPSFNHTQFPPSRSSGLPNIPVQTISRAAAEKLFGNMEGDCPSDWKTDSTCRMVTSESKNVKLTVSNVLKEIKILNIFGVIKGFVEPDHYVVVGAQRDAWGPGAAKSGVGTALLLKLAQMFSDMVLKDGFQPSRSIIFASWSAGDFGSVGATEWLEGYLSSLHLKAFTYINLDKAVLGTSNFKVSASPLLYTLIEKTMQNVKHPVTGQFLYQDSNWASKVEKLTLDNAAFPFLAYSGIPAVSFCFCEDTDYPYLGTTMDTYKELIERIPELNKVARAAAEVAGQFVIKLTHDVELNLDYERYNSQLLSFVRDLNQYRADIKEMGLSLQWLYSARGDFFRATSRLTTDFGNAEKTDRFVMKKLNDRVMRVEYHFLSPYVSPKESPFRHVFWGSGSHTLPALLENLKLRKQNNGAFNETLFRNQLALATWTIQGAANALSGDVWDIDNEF

Take `CC[C@H](C)[C@@H]1NC(=O)[C@H](Cc2ccc(OC)cc2)NC(=O)[C@H](Cc2ccc(N)nc2)NC(=O)[C@H](CC(N)=O)NC(=O)[C@H](Cc2cnc3ccccn23)NC(=O)[C@H](C(C)C)NC(=O)[C@H](Cc2ccccc2)N(C)C(=O)[C@H](C(C)C)NC(=O)[C@H](C)NC(=O)CSC[C@@H](C(=O)NCC(=O)N[C@@H](CCCCN=[N+]=[N-])C(N)=O)NC(=O)[C@H](Cc2ccc(O)cc2)N(C)C(=O)[C@H](Cc2ccncc2)NC(=O)[C@H](CCCNC(=N)N)NC(=O)[C@H](CCCNC(=N)N)NC(=O)[C@H]([C@@H](C)CC)NC1=O` [compound 190] ({CH2CO}-AV[NMeF]V[Ala(imidazo(1,2-a)pyr3yl)]N[3Pal(6-NH2)]Y(Me)IIRR[4Pal][NMeY]CG[Lys(N3)]-NH2; thioether N-15): the negative-log Kd (pKd) is 7.24 in assay [1] (SPR, pH 7.4, Table 1-3-2-2) and 6.75 in assay [2] (SPR, pH 6.0, Table 1-3-2-2).
On to `CC[C@H](C)[C@@H]1NC(=O)[C@H](Cc2ccc(OCC(=O)NC[C@H](O)[C@@H](O)[C@H](O)[C@H](O)CO)cc2)NC(=O)[C@H](Cc2ccc(N)nc2)NC(=O)[C@H](CC(N)=O)NC(=O)[C@H](Cc2c[nH]c3ncccc23)NC(=O)[C@H](C(C)C)NC(=O)[C@H](Cc2cccc(Cl)c2)N(C)C(=O)[C@H](C(C)C)NC(=O)[C@H](C)NC(=O)CSC[C@@H](C(=O)NCCOCCOCCOCCOCCC(N)=O)NC(=O)[C@H](Cc2ccc(O)cc2)N(C)C(=O)[C@H](Cc2ccncc2)NC(=O)[C@H](CCCNC(=N)N)NC(=O)[C@H](CCC(=O)NC[C@H](O)[C@@H](O)[C@H](O)[C@H](O)CO)NC(=O)[C@H]([C@@H](C)CC)NC1=O` [compound 12], for which the pKd was 8.15 in assay [1] (pH 7.4, single-cycle kinetics) and 6.86 in assay [2] (pH 6.0, single-cycle kinetics).
With `CC[C@H](C)[C@@H]1NC(=O)[C@H](Cc2ccc(OCC(=O)N3CCN(CC(=O)O)CC3)cc2)NC(=O)[C@H](Cc2ccc(O)cc2)NC(=O)[C@H](CC(N)=O)NC(=O)[C@H](Cc2c[nH]c3ncccc23)NC(=O)[C@H](C(C)C)NC(=O)[C@H](Cc2cccc(Cl)c2)N(C)C(=O)[C@H](C(C)C)NC(=O)[C@H](C)NC(=O)CSC[C@@H](C(=O)NCCOCCOCCOCCOCCC(N)=O)NC(=O)[C@H](Cc2ccc(O)cc2)N(C)C(=O)[C@H](Cc2ccncc2)NC(=O)[C@H](CCCNC(=N)N)NC(=O)[C@H](CCC(N)=O)NC(=O)[C@H]([C@@H](C)CC)NC1=O` [compound 16], the pKd is 8.53 in assay [1] (pH 7.4, single-cycle kinetics) and 7.39 in assay [2] (pH 6.0, single-cycle kinetics).
For the compound `CCC(CC)[C@@H]1NC(=O)[C@H](Cc2ccc(OCC(=O)N3CCN(CC(=O)O)CC3)cc2)NC(=O)[C@H](Cc2ccc(O)cc2)NC(=O)[C@H](CC(N)=O)NC(=O)[C@H](Cc2cn(CC(=O)O)c3ccccc23)NC(=O)[C@H](C(C)C)NC(=O)[C@H](Cc2cccc(Cl)c2)N(C)C(=O)[C@H](C(C)C)NC(=O)[C@H](C)NC(=O)CSC[C@@H](C(=O)NCCOCCOCCOCCOCCC(N)=O)NC(=O)[C@H](Cc2ccc(C(=O)O)cc2)N(C)C(=O)[C@H](Cc2ccncc2)NC(=O)[C@H](CCCCN2CCOCC2)NC(=O)[C@H](CCCCN2CCOCC2)NC(=O)[C@H]([C@@H](C)CC)NC1=O` [compound 56] ({CH2CO}-AV[NMePhe(3-Cl)]V[Trp(1-CH2COOH)]NYY(CH2CON(CH2CH2)2NCH2COOH)[Nva(3-Et)]I[Nle(6-morpholino)][Nle(6-morpholino)][4Pal][NMePhe(4-COOH)]C[PEG4]-NH2; thioether N-15), the pKd in assay [1] (pH 7.4, single-cycle kinetics) was 7.90; in assay [2] (pH 6.0, single-cycle kinetics), 7.14.
The matching figures for `CC[C@H](C)[C@@H]1NC(=O)[C@H](Cc2ccc(OC)cc2)NC(=O)[C@H](Cc2ccc(N)nc2)NC(=O)[C@H](CC(N)=O)NC(=O)[C@H](Cc2cn(CC(=O)O)c3ccccc23)NC(=O)[C@H](C(C)C)NC(=O)[C@H](Cc2cccc(Cl)c2)N(C)C(=O)[C@H](C(C)C)NC(=O)[C@H](C)NC(=O)CSC[C@@H](C(=O)NCCOCCOCCOCCOCCC(N)=O)NC(=O)[C@H](Cc2ccc(O)cc2)N(C)C(=O)[C@H](Cc2ccncc2)NC(=O)[C@H](CCCCNC(=O)N2CCN(CC(=O)O)CC2)NC(=O)[C@H](CCCCN2CCOCC2)NC(=O)[C@H]([C@@H](C)CC)NC1=O` [compound 8] ({CH2CO}-AV[NMePhe(3-Cl)]V[Trp(1-CH2COOH)]N[3Pal(6-NH2)]Y(Me)II[Nle(6-morpholino)]K([CO-Piperazinyl(4-CH2COOH)])[4Pal][NMeY]C[PEG4]-NH2; thioether N-15): 7.97 and 6.95.
Take `CCC(CC)[C@@H]1NC(=O)[C@H](Cc2ccc(OCC(=O)O)cc2)NC(=O)[C@H](Cc2ccc(O)cc2)NC(=O)[C@H](CC(N)=O)NC(=O)[C@H](Cc2cn(CC(=O)O)c3ccccc23)NC(=O)[C@H](C(C)C)NC(=O)[C@H](Cc2cccc(Cl)c2)N(C)C(=O)[C@H](C(C)C)NC(=O)[C@H](C)NC(=O)CSC[C@@H](C(=O)NCCOCCOCCOCCOCCC(N)=O)NC(=O)[C@H](Cc2ccc(O)cc2)N(C)C(=O)[C@H](Cc2cccnc2)NC(=O)[C@H](CCCNC(=N)N)NC(=O)[C@H](CCC(N)=O)NC(=O)[C@H]([C@@H](C)CC)NC1=O` [compound 105] ({CH2CO}-AV[NMePhe(3-Cl)]V[Trp(1-CH2COOH)]NYY(Carboxymethyl)[Nva(3-Et)]IQR[3Pal][NMeY]C[PEG4]-NH2; thioether N-15): the pKd in assay [1] (setting [3]) was 7.97; in assay [2] (setting [4]), 7.17.
On to `CC[C@H](C)[C@@H]1NC(=O)[C@H](Cc2ccc(OC)cc2)NC(=O)[C@H](Cc2ccc(N)nc2)NC(=O)[C@H](CC(N)=O)NC(=O)[C@H](Cc2cnc3ccccn23)NC(=O)[C@H](C(C)C)NC(=O)[C@H](Cc2cccc(Cl)c2)N(C)C(=O)[C@H](C(C)C)NC(=O)[C@H](C)NC(=O)CSC[C@@H](C(=O)NCC(=O)N[C@@H](CCCCN=[N+]=[N-])C(N)=O)NC(=O)[C@H](Cc2ccc(O)cc2)N(C)C(=O)[C@H](Cc2ccncc2)NC(=O)[C@H](CCCNC(=N)N)NC(=O)[C@H](CCCNC(=N)N)NC(=O)[C@H]([C@@H](C)CC)NC1=O` [compound 197] ({CH2CO}-AV[NMePhe(3-Cl)]V[Ala(imidazo(1,2-a)pyr3yl)]N[3Pal(6-NH2)]Y(Me)IIRR[4Pal][NMeY]CG[Lys(N3)]-NH2; thioether N-15), for which the pKd in assay [1] (SPR, pH 7.4, Table 1-3-2-2) is 8.29; in assay [2] (SPR, pH 6.0, Table 1-3-2-2), 7.36.
For the compound `CC[C@H](C)[C@@H]1NC(=O)[C@H](Cc2ccc(OCC(=O)O)cc2)NC(=O)[C@H](Cc2ccc(O)cc2)NC(=O)[C@H](CC(N)=O)NC(=O)[C@H](Cc2c[nH]c3ncccc23)NC(=O)[C@H](C(C)C)NC(=O)[C@H](Cc2cccc(Cl)c2)N(C)C(=O)[C@H](C(C)C)NC(=O)[C@H](C)NC(=O)CSC[C@@H](C(=O)NCCOCCOCCOCCOCCC(N)=O)NC(=O)[C@H](Cc2ccc(O)cc2)N(C)C(=O)[C@H](CCC(=O)NCCOCCOCCOCCOCCC(=O)O)NC(=O)[C@H](CCCNC(=N)N)NC(=O)[C@H](CCC(N)=O)NC(=O)[C@H]([C@@H](C)CC)NC1=O` [compound 143] ({CH2CO}-AV[NMePhe(3-Cl)]V[Trp(7-aza)]NYY(Carboxymethyl)IIQRE(PEG4)[NMeY]C[PEG4]-NH2; thioether N-15), the pKd in assay [1] (setting [3]) is 7.23; in assay [2] (setting [4]), 6.57.
Consider `CC[C@H](C)[C@@H]1NC(=O)[C@H](Cc2ccc(OC)cc2)NC(=O)[C@H](Cc2ccc(N)nc2)NC(=O)[C@H](CC(N)=O)NC(=O)[C@H](Cc2cn(CC(=O)O)c3ccccc23)NC(=O)[C@H](C(C)C)NC(=O)[C@H](Cc2cccc(Cl)c2)N(C)C(=O)[C@H](C(C)C)NC(=O)[C@H](C)NC(=O)CSC[C@@H](C(=O)NCCOCCOCCOCCOCCC(N)=O)NC(=O)[C@H](Cc2ccc(O)cc2)N(C)C(=O)[C@H](Cc2ccncc2)NC(=O)[C@H](CCCCN2CCOCC2)NC(=O)[C@H](CCCCN2CCOCC2)NC(=O)[C@H]([C@@H](C)CC)NC1=O` [compound 6] ({CH2CO}-AV[NMePhe(3-Cl)]V[Trp(1-CH2COOH)]N[3Pal(6-NH2)]Y(Me)II[Nle(6-morpholino)][Nle(6-morpholino)][4Pal][NMeY]C[PEG4]-NH2; thioether N-15), for which the pKd in assay [1] (pH 7.4, single-cycle kinetics) is 8.18; in assay [2] (pH 6.0, single-cycle kinetics) it was 7.68.
For `CCC(CC)[C@@H]1NC(=O)[C@H](Cc2ccc(OC)cc2)NC(=O)[C@H](Cc2ccc(O)cc2)NC(=O)[C@H](CC(N)=O)NC(=O)[C@H](Cc2c[nH]c3ncccc23)NC(=O)[C@H](C(C)C)NC(=O)[C@H](Cc2cccc(Cl)c2)N(C)C(=O)[C@H](C(C)C)NC(=O)[C@H](C)NC(=O)CSC[C@@H](C(=O)NCCOCCOCCOCCOCCC(N)=O)NC(=O)[C@H](Cc2ccc(C(=O)O)cc2)N(C)C(=O)[C@H](Cc2ccncc2)NC(=O)[C@H](CCCNC(=N)N)NC(=O)[C@H](CCCCN2CCOCC2)NC(=O)[C@H]([C@@H](C)CC)NC1=O` [compound 114] ({CH2CO}-AV[NMePhe(3-Cl)]V[Trp(7-aza)]NYY(Me)[Nva(3-Et)]I[Nle(6-morpholino)]R[4Pal][NMePhe(4-COOH)]C[PEG4]-NH2; thioether N-15), the values for the negative-log Kd (pKd) in assay [1] (setting [3]) and in assay [2] (setting [4]) were 8.88 and 7.97, respectively.
Consider `CCC(CC)[C@@H]1NC(=O)[C@H](Cc2ccc(O)cc2)NC(=O)[C@H](Cc2ccc(N)nc2)NC(=O)[C@H](CC(N)=O)NC(=O)[C@H](Cc2c[nH]c3ccccc23)N(C)C(=O)[C@H](C(C)C)NC(=O)[C@H](Cc2cccc(Cl)c2)N(C)C(=O)[C@H](C(C)C)NC(=O)[C@H](C)NC(=O)CSC[C@@H](C(=O)NCCOCCOCCOCCOCCC(N)=O)NC(=O)[C@H](Cc2ccc(O)cc2)N(C)C(=O)[C@H](Cc2ccc(O)cc2)NC(=O)[C@H](CCCNC(=N)N)NC(=O)[C@H](CCCCN)NC(=O)[C@H]([C@@H](C)CC)NC1=O` [compound 134] ({CH2CO}-AV[NMePhe(3-Cl)]V[NMeW]N[3Pal(6-NH2)]Y[Nva(3-Et)]IKRY[NMeY]C[PEG4]-NH2; thioether N-15), for which the pKd is 8.34 in assay [1] (setting [3]) and 8.40 in assay [2] (setting [4]).
